Source: patent US20170233409A1, “TYPE IV SECRETION SYSTEM INHIBITORS” (priority 2016, published 2017)
“Also recorded” adds a separate entry of the source.

Tests used:
cag T4SS [1] = test: CagA translocation assay (tyrosine-phosphorylated CagA immunoblot); assay type: cell-based, H. pylori; conditions: 150 μM; compared to vehicle-only and GKP42-treated controls
H. pylori = H. pylori viability (cellular ATP, CellTiter-Glo); assay type: cell-based; conditions: concentrations up to 150 μM
cag T4SS [2] = test: NF-κB luciferase reporter activation by H. pylori in AGS cells; assay type: cell-based; conditions: for cag T4SS-dependent NF-κB activation: WT H. pylori, AGS NF-κB-luc cells; for cag T4SS-mediated NF-κB activation by H. pylori strains of different phylogeographic origins: multiple H. pylori strains
Method: Quantitation of NF-κB signaling activation. AGS cells stably transfected with an NF-κB-luciferase reporter (AGS NF-κB-luc) were cultured for 24 h and treated as described for the IL-8 induction studies. After 4 h co-culture with H. pylori, cell monolayers were washed with sterile PBS, and cell monolayer extracts were obtained by passive cell lysis. NF-κB-luciferase activity was measured by the Steady-Glo Luciferase Assay System (Promega) on a BioTek Synergy 4 plate reader, and plates were normalized to the DMSO vehicle control for each dilution series.

[3] = tested on: IncF group R1-16 conjugative T4SS; test: DNA conjugation efficiency, R1-16; conditions: 150 μM
Method: (§1) Analysis of DNA conjugation efficiency. Overnight cultures of donor E. coli MG1655 harboring pKM101, donor E. coli MS411 harboring R1-16, and recipient E. coli MG1655 (WM1652) were grown at 37° C. with shaking at 225 rpm in LB/antibiotic, were diluted in antibiotic-free LB containing DMSO or 150 μM compound, and incubated with shaking at 37° C. to reach an OD600 of ˜0.3. Donor and recipient cells were mixed at a ratio of 1:1 on 0.22 μM pore size mixed cellulose ester filters (Millipore) on antibiotic-free LB plates for 2 h at 37° C. Filters were aseptically removed from LB plates and incubated in 100 μl antibiotic-free LB to dislodge E. coli from membranes. Serial dilutions were plated on the appropriate antibiotic (or dual antibiotic) LB plates to determine the number of donor, recipient, and transconjugant cells. Colonies were enumerated after 24 h, and conjugation efficiencies were calculated by dividing the average number of transconjugates by the average number of donors (either pKM101 or R1-16 donor cells). Conjugation efficiency in the presence of compound is expressed as a percentage of conjugation efficiency in DMSO.

TLR9 = biological target: T1, TLR9 (Homo sapiens, UniProt Q9NR96); test: TLR9 activation by CpG ODN (control); assay type: cell-based; conditions: 50 μM
T1 construct: host or cells: HEK293-TLR9 reporter cell line
T1 sequence (Q9NR96 26-1032): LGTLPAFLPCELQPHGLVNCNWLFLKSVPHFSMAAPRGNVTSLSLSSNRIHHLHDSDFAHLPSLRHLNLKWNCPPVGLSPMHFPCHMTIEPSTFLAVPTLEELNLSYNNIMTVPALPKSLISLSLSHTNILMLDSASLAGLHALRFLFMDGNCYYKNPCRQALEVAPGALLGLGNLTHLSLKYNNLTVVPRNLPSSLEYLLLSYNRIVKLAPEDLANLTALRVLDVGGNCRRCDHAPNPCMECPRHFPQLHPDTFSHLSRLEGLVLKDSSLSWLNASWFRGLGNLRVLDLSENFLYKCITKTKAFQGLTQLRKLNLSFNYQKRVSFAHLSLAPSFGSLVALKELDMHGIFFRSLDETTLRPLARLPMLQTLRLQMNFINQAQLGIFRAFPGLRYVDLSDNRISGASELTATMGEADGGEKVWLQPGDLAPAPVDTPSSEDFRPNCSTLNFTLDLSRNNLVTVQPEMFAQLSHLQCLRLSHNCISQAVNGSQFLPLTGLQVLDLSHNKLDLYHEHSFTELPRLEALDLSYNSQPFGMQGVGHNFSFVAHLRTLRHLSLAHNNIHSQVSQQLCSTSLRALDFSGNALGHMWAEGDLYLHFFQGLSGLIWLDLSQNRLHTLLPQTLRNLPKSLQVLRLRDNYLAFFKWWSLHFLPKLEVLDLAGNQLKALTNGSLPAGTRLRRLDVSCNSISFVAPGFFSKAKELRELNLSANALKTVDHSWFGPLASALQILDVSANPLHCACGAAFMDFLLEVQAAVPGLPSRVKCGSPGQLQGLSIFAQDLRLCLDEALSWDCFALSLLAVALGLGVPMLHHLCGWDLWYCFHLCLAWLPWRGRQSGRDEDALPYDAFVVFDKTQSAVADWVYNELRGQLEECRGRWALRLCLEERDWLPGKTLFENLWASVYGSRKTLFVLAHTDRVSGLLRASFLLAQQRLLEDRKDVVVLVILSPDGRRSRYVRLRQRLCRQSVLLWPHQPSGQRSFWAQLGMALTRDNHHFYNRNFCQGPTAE
Method: Inhibition of T4SS-dependent activation of human TLR9 signaling by H. pylori. H. pylori strain J166 was grown in broth culture overnight, and was subsequently pre-treated in the indicated compound at a final concentration of 50 μM, or in an equivalent volume of DMSO vehicle for 30 min prior to inoculating cultured HEK293-TLR9 reporter cell lines. Co-cultures were incubated in the presence of 50 μM compound or an equivalent volume of DMSO vehicle supplemented in the cell culture media for the duration of incubation (18 hours). TLR9 activation was assayed using a colorimetric assay (Invivogen), and TLR9 activation in the presence of type IV secretion system (T4SS) inhibitor compounds is expressed as a percentage of TLR9 activation by H. pylori in the presence of vehicle. As a control, TLR9 was activated with the immunostimulatory synthetic ligand CpG oligodeoxynucleotide (CpG ODN) in the presence of DMSO or inhibitor compound at 50 μM final concentration.

[4] = tested on: IncN group conjugative T4SS encoded by pKM101; test: DNA conjugation efficiency, pKM101; conditions: 150 μM, compared to vehicle controls
Method: as §1

cag T4SS [5] = assay type: cell-based, H. pylori; conditions: for LogEC50, attenuation of cag T4SS-dependent IL-8 secretion / EC50: 4.5 h co-culture, normalized IL-8 secretion, non-linear regression; for cag T4SS-dependent IL-8 secretion: H. pylori-gastric epithelial cell co-culture, 25-150 μM; for EC50: read-out: EC50, attenuation of cag T4SS-dependent IL-8 secretion
H. pylori cag T4SS = assay type: cell-based; conditions: for T4SS-dependent activation of TLR9 by H. pylori: strain J166 pre-treated 30 min, 50 μM, 18 hours
cag T4SS pili = test: Scanning electron microscopy of cag T4SS pili; assay type: cell-based, H. pylori; conditions: 150 μM, SEM
Method: Scanning electron microscopy. Overnight cultures of H. pylori were diluted to OD600˜0.3 and incubated with shaking at 37° C., 5% CO2 for 1 h in the presence of vehicle or 150 μM compound and co-cultured with AGS cells on tissue culture-treated coverslips (BD Biosciences) at an MOI of 100 in the presence of 150 μM compound or vehicle. H. pylori-AGS cell co-cultures were processed and imaged.
Field emission gun scanning electron microscopy. Samples were fixed with 2.0% paraformaldehyde, 2.5% glutaraldehyde in 0.05 M sodium cacodylate buffer, and secondarily fixed with 0.1% osmium tetroxide. Sequential dehydration was performed by washing with increasing concentrations of ethanol. Samples were dried at the critical point with a Tousimis critical point dryer. Coverslips were mounted onto aluminum stubs and sputter coated with gold-palladium and imaged with an FEI Quanta 250 FEG-SEM.

**Q.** With O=C(O)[C@@H]1CSc2c(C3CC3)c(Cc3cccc4ccccc34)cc(=O)n21 [Compound C10, (3R)-8-cyclopropyl-7-(naphthalen-1-ylmethyl)-5-oxo-3,5-dihydro-2H-thiazolo[3,2-a]pyridine-3-carboxylic acid] as the molecule, how does the “amount of tyrosine-phosphorylated CagA in cultured gastric epithelial cells” value (cag T4SS [1]) read?
**A.** significantly reduced

**Q.** What about the “viability of bacterial cells” value (H. pylori) of the same molecule?
**A.** did not impact viability

**Q.** And the “cag T4SS-dependent NF-κB activation” value (cag T4SS [2])?
**A.** significantly reduced

**Q.** And the “cag T4SS-mediated NF-κB activation by H. pylori strains of different phylogeographic origins” value (cag T4SS [2])?
**A.** inhibited

**Q.** What about the “NF-κB activation by H. pylori ΔcagA mutant compared to WT strain” value (cag T4SS [2]) of the same molecule?
**A.** the same as those observed in the WT strain

**Q.** And the “DNA conjugation efficiency of the de-repressed R1-16 system” value [3]?
**A.** reduced DNA transfer

**Q.** And the “activation of TLR9 by CpG ODN” value (TLR9)?
**A.** not by CpG ODN

**Q.** And the “DNA conjugation efficiency of pKM101” value [4]?
**A.** reduced

**Q.** And the “LogEC50, attenuation of cag T4SS-dependent IL-8 secretion” value (cag T4SS [5])?
**A.** −1.19

**Q.** And the “cag T4SS-dependent IL-8 secretion” value (cag T4SS [5])?
**A.** significantly reduced

**Q.** What about the EC50 (cag T4SS [5]) of the same molecule?
**A.** 64.5 µM

**Q.** And the “T4SS Inhibiton [50 μM] (TLR9 Activation Assay)” value (H. pylori cag T4SS; no bacterial pre-treatment, about 18 hours post-infection, HEK293-TLR9 cells)?
**A.** ++

**Q.** What about the “T4SS-dependent activation of TLR9 by H. pylori” value (H. pylori cag T4SS) of the same molecule?
**A.** inhibit

**Q.** With COc1ccc(Cc2cc(=O)n3c(c2C2CC2)SC[C@H]3C(=O)O)c2ccccc12 [KSK85, (3R)-7-[(4-methoxynaphthalen-1-yl)methyl]-8-cyclopropyl-5-oxo-2,3-dihydro-5H-[1,3]thiazolo[3,2-a]pyridine-3-carboxylic acid] as the molecule, how does the “amount of tyrosine-phosphorylated CagA in cultured gastric epithelial cells” value (cag T4SS [1]) read?
**A.** significantly reduced

**Q.** What about the “viability of bacterial cells” value (H. pylori) of the same molecule?
**A.** did not impact viability

**Q.** And the “cag T4SS-dependent NF-κB activation” value (cag T4SS [2])?
**A.** significantly reduced; also recorded: reduced compared to the inhibitory effects of C10

**Q.** And the “cag T4SS-mediated NF-κB activation by H. pylori strains of different phylogeographic origins” value (cag T4SS [2])?
**A.** inhibited

**Q.** What about the “NF-κB activation by H. pylori ΔcagA mutant compared to WT strain” value (cag T4SS [2]) of the same molecule?
**A.** significantly enhanced

**Q.** What about the “cag T4SS pilus formation at the bacteria-host cell interface” value (cag T4SS pili) of the same molecule?
**A.** abrogated pilus formation in the majority of H. pylori cells

**Q.** What about the “DNA conjugation efficiency of the de-repressed R1-16 system” value [3] of the same molecule?
**A.** did not

**Q.** And the “activation of TLR9 by CpG ODN” value (TLR9)?
**A.** not by CpG ODN

**Q.** What about the “DNA conjugation efficiency of pKM101” value [4] of the same molecule?
**A.** reduced

**Q.** And the “LogEC50, attenuation of cag T4SS-dependent IL-8 secretion” value (cag T4SS [5])?
**A.** −1.14

**Q.** And the “cag T4SS-dependent IL-8 secretion” value (cag T4SS [5])?
**A.** significantly reduced

**Q.** What about the EC50 (cag T4SS [5]) of the same molecule?
**A.** 72.2 µM

**Q.** And the “T4SS-dependent activation of TLR9 by H. pylori” value (H. pylori cag T4SS)?
**A.** inhibit
